Common to all, as to format: functional
Assay [1] relates to Oesophagostomum columbianum. As to the kind of experiment: Antiparasitic activity against Oesophagostomum columbianum at dose of 0.10 mg/kg in sheep anthelmintic test.
Assay [2] concerns Cooperia oncophora. Kind of assay: Antiparasitic activity against Cooperia oncophora at dose of 0.10 mg/kg in sheep anthelmintic test.
In assay [3] the test system is Teladorsagia circumcincta. As to the kind of experiment: Antiparasitic activity against Ostertagia circumcincta at dose of 0.10 mg/kg in sheep anthelmintic test.
In assay [4] the test system is Cooperia. As to the kind of experiment: Antiparasitic activity against Cooperia […] at dose of 0.10 mg/kg in sheep anthelmintic test. The settings on record: dose 0.1 mg/kg.
The subject of assay [5] is Trichostrongylus axei. Kind of assay: Antiparasitic activity against Trichostrongylus axei at dose of 0.10 mg/kg in sheep anthelmintic test.
The subject of the next assay is Artemia. Kind of assay: In vitro antiparasitic activity in brine shrimp assay.
Assay [6] deals with Haemonchus contortus. Kind of assay: Antiparasitic activity against Haemonchus contortus at dose of 0.10 mg/kg in sheep anthelmintic test.
For assay [7], the system named is Trichostrongylus colubriformis. Kind of assay: Antiparasitic activity against Trichostrongylus colubriformis at dose of 0.10 mg/kg in sheep anthelmintic test.
The test system of assay [8] is Trichostrongylus axei. As to the kind of experiment: Antiparasitic activity against Trichostrongylus axei at dose of 0.05 mg/kg in sheep anthelmintic test.
Assay [9] has as its system Haemonchus contortus. As to the kind of experiment: Antiparasitic activity against Haemonchus contortus at dose of 0.05 mg/kg in sheep anthelmintic test.
Assay [10] deals with Cooperia oncophora. As to the kind of experiment: Antiparasitic activity against Cooperia oncophora at dose of 0.05 mg/kg in sheep anthelmintic test.
Assay [11] relates to Trichostrongylus colubriformis. Kind of assay: Antiparasitic activity against Trichostrongylus colubriformis at dose of 0.05 mg/kg in sheep anthelmintic test.
The test system of assay [12] is Oesophagostomum columbianum. As to the kind of experiment: Antiparasitic activity against Oesophagostomum columbianum at dose of 0.05 mg/kg in sheep anthelmintic test.
In assay [13] the test system is Teladorsagia circumcincta. Kind of assay: Antiparasitic activity against Ostertagia circumcincta at dose of 0.05 mg/kg in sheep anthelmintic test.
The test system of assay [14] is Cooperia. Kind of assay: Antiparasitic activity against Cooperia […] at dose of 0.05 mg/kg in sheep anthelmintic test.

As to `CCC(C)[C@H]1O[C@]2(CC[C@@H]1C)C[C@@H]1C[C@@H](C/C=C(\C)[C@@H](O[C@H]3C[C@H](OC)[C@@H](O[C@H]4C[C@H](OC)[C@H](NC(C)=O)[C@H](C)O4)[C@H](C)O3)[C@@H](C)/C=C/C=C3\CO[C@@H]4[C@H](O)C(C)=C[C@@H](C(=O)O1)[C@]34O)O2` (some centres not stated), the Reduction (in assay [1] (dose 0.1 mg/kg); in the assay on Cooperia oncophora [2] (dose 0.1 mg/kg); in assay [3] (dose 0.1 mg/kg); in the assay on Cooperia [4]; with Trichostrongylus axei [5] (dose 0.1 mg/kg); with Haemonchus contortus [6] (dose 0.1 mg/kg)) was more than 95% each time. The Reduction in assay [7] (dose 0.1 mg/kg) is given as more than 95%. Further, in the assay on Artemia, the IC100 was determined as 650 ng/mL.

With `CCC(C)[C@H]1O[C@]2(C=C[C@@H]1C)C[C@@H]1C[C@@H](C/C=C(\C)[C@@H](O[C@H]3C[C@H](OC)[C@@H](O[C@H]4C[C@@H](OC)[C@@H](NC(C)=O)[C@H](C)O4)[C@H](C)O3)[C@@H](C)/C=C/C=C3\CO[C@@H]4[C@H](O)C(C)=C[C@@H](C(=O)O1)[C@]34O)O2` (some centres not stated), the Reduction in the assay with Trichostrongylus axei [8] was more than 95%; with Haemonchus contortus [9], more than 95%; in the assay with Cooperia oncophora [10], 76%; in assay [11], more than 95%; in assay [12], more than 95%; in assay [13], more than 95%. The compound further returned a Reduction in the assay on Cooperia [14] of less than 50%. In the assay on Artemia, this compound displayed an IC100 of 430 ng/mL.

With `CCC(C)[C@H]1O[C@]2(C=C[C@@H]1C)C[C@@H]1C[C@@H](C/C=C(\C)[C@@H](O[C@H]3C[C@H](OC)[C@@H](O[C@H]4C[C@H](OC)[C@H](/N=C/N(C)C)[C@H](C)O4)[C@H](C)O3)[C@@H](C)/C=C/C=C3\CO[C@@H]4[C@H](O)C(C)=C[C@@H](C(=O)O1)[C@]34O)O2` (some centres not stated), the Reduction in assay [1] (dose 0.1 mg/kg) is more than 95%; with Cooperia oncophora [2] (dose 0.1 mg/kg), less than 50%; in assay [3] (dose 0.1 mg/kg), more than 95%; with Cooperia [4] it was 76%; in the assay on Trichostrongylus axei [5] (dose 0.1 mg/kg), 51%; with Haemonchus contortus [6] (dose 0.1 mg/kg), more than 95%. For the same compound, the Reduction in [7] (dose 0.1 mg/kg) is less than 50%. For the same compound, the IC100 in the assay on Artemia came out at 870 ng/mL.

Turning to `CCC(C)[C@H]1O[C@]2(C=C[C@@H]1C)C[C@@H]1C[C@@H](C/C=C(\C)[C@@H](O[C@H]3C[C@H](OC)[C@@H](O[C@H]4C[C@H](OC)[C@H](NC=O)[C@H](C)O4)[C@H](C)O3)[C@@H](C)/C=C/C=C3\CO[C@@H]4[C@H](O)C(C)=C[C@@H](C(=O)O1)[C@]34O)O2` (some centres not stated), the Reduction (with Trichostrongylus axei [8]; in the assay on Haemonchus contortus [9]; in the assay on Cooperia oncophora [10]; in assay [11]; in [12]; in assay [13]) was more than 95% each time. In the assay on Cooperia [14], this compound gave a Reduction of more than 95%. The IC100 in the assay with Artemia came out at 380 ng/mL.

In the case of `CCC(C)[C@H]1O[C@]2(C=C[C@@H]1C)C[C@@H]1C[C@@H](C/C=C(\C)[C@@H](O[C@H]3C[C@H](OC)[C@@H](O[C@H]4C[C@H](OC)[C@H](NC(=O)c5ccccc5)[C@H](C)O4)[C@H](C)O3)[C@@H](C)/C=C/C=C3\CO[C@@H]4[C@H](O)C(C)=C[C@@H](C(=O)O1)[C@]34O)O2` (some centres not stated), the Reduction with Trichostrongylus axei [8] was less than 50%; in the assay on Haemonchus contortus [9] it was 76%; with Cooperia oncophora [10], more than 95%; in [11] it was less than 50%; in assay [12] it was more than 95%; in assay [13], 76%. The compound also returned a Reduction with Cooperia [14] of more than 95%. Also, the IC100 with Artemia is 28000 ng/mL.

On to `CCC(=O)N[C@@H]1[C@H](C)O[C@@H](O[C@H]2[C@H](C)O[C@@H](O[C@@H]3/C(C)=C/C[C@@H]4C[C@@H](C[C@]5(C=C[C@H](C)[C@@H](C(C)CC)O5)O4)OC(=O)[C@@H]4C=C(C)[C@@H](O)[C@H]5OC/C(=C\C=C\[C@@H]3C)[C@]54O)C[C@@H]2OC)C[C@@H]1OC` (some centres not stated), for which the Reduction (with Trichostrongylus axei [8]; in the assay on Haemonchus contortus [9]; in the assay with Cooperia oncophora [10]; in assay [11]; in assay [12]; in assay [13]) was more than 95% each time. In addition, the Reduction in the assay with Cooperia [14] is given as more than 95%. Moreover, the IC100 in the assay on Artemia stood at 430 ng/mL.

For `CCC(C)[C@H]1O[C@]2(C=C[C@@H]1C)C[C@@H]1C[C@@H](C/C=C(\C)[C@@H](O[C@H]3C[C@H](OC)[C@@H](O[C@H]4C[C@H](OC)[C@H](NC(=O)OC)[C@H](C)O4)[C@H](C)O3)[C@@H](C)/C=C/C=C3\CO[C@@H]4[C@H](O)C(C)=C[C@@H](C(=O)O1)[C@]34O)O2` (some centres not stated), the Reduction (in [1] (dose 0.1 mg/kg); with Cooperia oncophora [2] (dose 0.1 mg/kg); in assay [3] (dose 0.1 mg/kg); in the assay with Cooperia [4]; with Trichostrongylus axei [5] (dose 0.1 mg/kg); with Haemonchus contortus [6] (dose 0.1 mg/kg)) was more than 95% each time. The Reduction in assay [7] (dose 0.1 mg/kg) is more than 95%. The compound further showed an IC100 in the assay on Artemia of 430 ng/mL.

Take `CCC(C)[C@H]1O[C@]2(C=C[C@@H]1C)C[C@@H]1C[C@@H](C/C=C(\C)[C@@H](O[C@H]3C[C@H](OC)[C@@H](O[C@H]4C[C@H](OC)[C@H](N(C)C(C)=O)[C@H](C)O4)[C@H](C)O3)[C@@H](C)/C=C/C=C3\CO[C@@H]4[C@H](O)C(C)=C[C@@H](C(=O)O1)[C@]34O)O2` (some centres not stated): the Reduction (with Trichostrongylus axei [8]; in the assay on Haemonchus contortus [9]; with Cooperia oncophora [10]; in assay [11]; in assay [12]; in [13]) was more than 95% throughout. In the assay on Cooperia [14], this compound returned a Reduction of more than 95%. For the same compound, the IC100 in the assay with Artemia came to 650 ng/mL.

For `CCC(C)[C@H]1O[C@]2(C=C[C@@H]1C)C[C@@H]1C[C@@H](C/C=C(\C)[C@@H](O[C@H]3C[C@H](OC)[C@@H](O[C@H]4C[C@H](OC)[C@@H](NC(C)=O)[C@H](C)O4)[C@H](C)O3)[C@@H](C)/C=C/C=C3\CO[C@@H]4[C@H](O)C(C)=C[C@@H](C(=O)O1)[C@]34O)O2` (some centres not stated), the Reduction in the assay with Trichostrongylus axei [8] is on record as more than 95%; with Haemonchus contortus [9] it was more than 95%; in the assay on Cooperia oncophora [10], more than 95%; in assay [11], less than 50%; in assay [12], more than 95%; in assay [13], less than 50%. For the same compound, the Reduction in the assay on Cooperia [14] is reported as 76%. In the assay on Artemia, this compound registered an IC100 of 325 ng/mL.

As for `CCC(C)[C@H]1O[C@]2(CC(O)[C@@H]1C)C[C@@H]1C[C@@H](C/C=C(\C)[C@@H](O[C@H]3C[C@H](OC)[C@@H](O[C@H]4C[C@H](OC)[C@H](NC(C)=O)[C@H](C)O4)[C@H](C)O3)[C@@H](C)/C=C/C=C3\CO[C@@H]4[C@H](O)C(C)=C[C@@H](C(=O)O1)[C@]34O)O2` (some centres not stated), the Reduction in [1] (dose 0.1 mg/kg) is more than 95%; with Cooperia oncophora [2] (dose 0.1 mg/kg), more than 95%; in assay [3] (dose 0.1 mg/kg), more than 95%; with Cooperia [4], 76%; in the assay with Trichostrongylus axei [5] (dose 0.1 mg/kg), more than 95%; in the assay with Haemonchus contortus [6] (dose 0.1 mg/kg), less than 50%. Further, the Reduction in assay [7] (dose 0.1 mg/kg) was more than 95%. This compound also displayed an IC100 in the assay with Artemia of 870 ng/mL.

As for IVERMECTIN, the Reduction (in assay [1]; in the assay with Cooperia oncophora [2]; in [3]; in the assay with Trichostrongylus axei [5]; in the assay on Haemonchus contortus [6]; in [7]) was more than 95% in each case. Moreover, in the assay on Artemia, the IC100 came to 430 ng/mL.

These data come from ChEMBL document CHEMBL1128617, “4-Deoxy-4-aminoavermectins with potent broad spectrum antiparasitic activities” (1995).
